From article doi:10.1101/2023.11.24.568596v1 (biorxiv, 2023)

What was measured:
Conditions in all cases: binder
[1] = molecular target: T1, DMPK1 (Homo sapiens, UniProt Q09013)
T1 sequence (Q09013 1-629): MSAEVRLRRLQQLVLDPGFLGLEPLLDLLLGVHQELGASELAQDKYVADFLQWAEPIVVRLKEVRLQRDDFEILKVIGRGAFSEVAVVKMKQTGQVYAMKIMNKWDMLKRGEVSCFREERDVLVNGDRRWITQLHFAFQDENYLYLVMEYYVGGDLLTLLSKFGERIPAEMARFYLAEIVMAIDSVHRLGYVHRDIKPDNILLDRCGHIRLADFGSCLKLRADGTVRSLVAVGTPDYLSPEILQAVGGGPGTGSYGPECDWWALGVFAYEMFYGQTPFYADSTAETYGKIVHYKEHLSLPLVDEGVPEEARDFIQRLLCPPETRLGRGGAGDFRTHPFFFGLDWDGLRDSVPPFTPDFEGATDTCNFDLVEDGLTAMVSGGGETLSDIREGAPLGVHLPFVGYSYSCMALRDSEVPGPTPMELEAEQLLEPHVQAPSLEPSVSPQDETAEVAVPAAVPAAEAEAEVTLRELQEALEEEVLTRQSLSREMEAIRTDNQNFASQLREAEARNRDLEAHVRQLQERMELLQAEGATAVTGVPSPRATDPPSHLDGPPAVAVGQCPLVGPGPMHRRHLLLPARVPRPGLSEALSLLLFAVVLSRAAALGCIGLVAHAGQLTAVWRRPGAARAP

[2] = molecular target: GSK3B (Homo sapiens, UniProt P49841)
GSK3B, sequence (P49841 whole entry): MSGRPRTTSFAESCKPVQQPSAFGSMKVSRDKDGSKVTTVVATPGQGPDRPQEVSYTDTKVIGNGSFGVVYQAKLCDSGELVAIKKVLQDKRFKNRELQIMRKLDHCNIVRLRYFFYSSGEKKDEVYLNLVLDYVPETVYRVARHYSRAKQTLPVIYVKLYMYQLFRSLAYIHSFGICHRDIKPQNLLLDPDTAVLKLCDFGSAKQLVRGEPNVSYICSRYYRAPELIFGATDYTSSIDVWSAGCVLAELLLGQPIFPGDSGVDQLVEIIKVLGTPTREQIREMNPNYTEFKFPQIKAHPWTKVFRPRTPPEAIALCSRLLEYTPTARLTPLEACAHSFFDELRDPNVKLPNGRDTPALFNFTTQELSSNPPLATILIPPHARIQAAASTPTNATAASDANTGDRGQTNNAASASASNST

[3] = molecular target: BIKE (Homo sapiens, UniProt Q9NSY1)
BIKE, sequence (Q9NSY1 whole entry): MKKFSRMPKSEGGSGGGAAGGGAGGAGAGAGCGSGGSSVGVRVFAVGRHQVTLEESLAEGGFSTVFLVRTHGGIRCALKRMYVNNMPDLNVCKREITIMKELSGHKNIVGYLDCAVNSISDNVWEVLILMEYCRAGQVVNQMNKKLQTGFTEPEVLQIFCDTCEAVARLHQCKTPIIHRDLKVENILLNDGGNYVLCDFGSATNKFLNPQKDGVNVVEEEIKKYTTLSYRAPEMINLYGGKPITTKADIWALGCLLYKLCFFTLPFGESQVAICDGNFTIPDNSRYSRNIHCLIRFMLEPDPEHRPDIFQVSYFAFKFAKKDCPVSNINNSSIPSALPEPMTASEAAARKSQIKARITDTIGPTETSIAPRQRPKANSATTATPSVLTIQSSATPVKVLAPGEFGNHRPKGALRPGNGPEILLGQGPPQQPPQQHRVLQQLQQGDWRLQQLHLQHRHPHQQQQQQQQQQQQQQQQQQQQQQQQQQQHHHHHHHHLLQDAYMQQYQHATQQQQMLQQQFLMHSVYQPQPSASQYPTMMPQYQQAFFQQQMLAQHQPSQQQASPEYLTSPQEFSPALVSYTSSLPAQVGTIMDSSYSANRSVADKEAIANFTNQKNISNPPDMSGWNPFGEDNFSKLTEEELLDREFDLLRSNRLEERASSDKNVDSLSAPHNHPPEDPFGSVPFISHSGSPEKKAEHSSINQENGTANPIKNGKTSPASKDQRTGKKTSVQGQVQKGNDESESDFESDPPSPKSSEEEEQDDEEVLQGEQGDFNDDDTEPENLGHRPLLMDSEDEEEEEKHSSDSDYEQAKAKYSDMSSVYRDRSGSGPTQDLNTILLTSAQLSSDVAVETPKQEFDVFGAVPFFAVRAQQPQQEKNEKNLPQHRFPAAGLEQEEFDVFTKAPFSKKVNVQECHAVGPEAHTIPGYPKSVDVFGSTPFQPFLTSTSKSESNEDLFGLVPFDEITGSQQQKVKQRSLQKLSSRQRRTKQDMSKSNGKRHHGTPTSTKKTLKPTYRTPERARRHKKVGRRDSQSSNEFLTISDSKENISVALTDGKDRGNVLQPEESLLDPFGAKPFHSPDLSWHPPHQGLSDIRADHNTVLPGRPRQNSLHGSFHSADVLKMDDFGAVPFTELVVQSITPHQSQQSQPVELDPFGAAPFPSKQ

[4] = molecular target: DYRK1A (Homo sapiens, UniProt Q13627)
[5] = molecular target: EphA4 (Homo sapiens, UniProt P54764)
EphA4, sequence (P54764 whole entry): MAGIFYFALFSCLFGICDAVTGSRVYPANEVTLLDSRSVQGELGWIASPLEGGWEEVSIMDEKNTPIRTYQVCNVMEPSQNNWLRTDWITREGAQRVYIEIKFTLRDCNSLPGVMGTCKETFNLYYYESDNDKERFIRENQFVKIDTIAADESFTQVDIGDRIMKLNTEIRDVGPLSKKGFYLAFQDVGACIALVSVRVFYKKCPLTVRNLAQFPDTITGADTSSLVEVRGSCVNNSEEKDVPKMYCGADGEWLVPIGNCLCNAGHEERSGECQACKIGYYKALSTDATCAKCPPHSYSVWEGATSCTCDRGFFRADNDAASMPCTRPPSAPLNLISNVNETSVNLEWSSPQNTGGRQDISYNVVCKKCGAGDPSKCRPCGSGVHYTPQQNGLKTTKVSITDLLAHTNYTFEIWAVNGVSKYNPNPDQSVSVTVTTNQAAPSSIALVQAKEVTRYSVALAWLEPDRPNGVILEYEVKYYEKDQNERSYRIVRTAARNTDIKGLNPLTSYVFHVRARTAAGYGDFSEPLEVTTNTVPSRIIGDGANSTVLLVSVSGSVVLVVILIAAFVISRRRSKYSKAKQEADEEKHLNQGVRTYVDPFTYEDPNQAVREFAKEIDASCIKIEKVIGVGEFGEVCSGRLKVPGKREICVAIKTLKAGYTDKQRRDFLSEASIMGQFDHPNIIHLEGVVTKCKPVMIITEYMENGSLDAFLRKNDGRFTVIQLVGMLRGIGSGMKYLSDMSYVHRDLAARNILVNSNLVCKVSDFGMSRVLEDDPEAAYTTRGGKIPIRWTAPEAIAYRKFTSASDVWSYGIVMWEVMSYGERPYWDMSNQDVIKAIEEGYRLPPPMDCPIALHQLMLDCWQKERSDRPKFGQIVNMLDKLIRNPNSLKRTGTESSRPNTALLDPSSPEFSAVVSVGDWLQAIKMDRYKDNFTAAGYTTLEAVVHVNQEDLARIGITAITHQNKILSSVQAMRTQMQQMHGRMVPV

[6] = molecular target: CLK3 (Homo sapiens, UniProt P49761)
CLK3, sequence (P49761 whole entry): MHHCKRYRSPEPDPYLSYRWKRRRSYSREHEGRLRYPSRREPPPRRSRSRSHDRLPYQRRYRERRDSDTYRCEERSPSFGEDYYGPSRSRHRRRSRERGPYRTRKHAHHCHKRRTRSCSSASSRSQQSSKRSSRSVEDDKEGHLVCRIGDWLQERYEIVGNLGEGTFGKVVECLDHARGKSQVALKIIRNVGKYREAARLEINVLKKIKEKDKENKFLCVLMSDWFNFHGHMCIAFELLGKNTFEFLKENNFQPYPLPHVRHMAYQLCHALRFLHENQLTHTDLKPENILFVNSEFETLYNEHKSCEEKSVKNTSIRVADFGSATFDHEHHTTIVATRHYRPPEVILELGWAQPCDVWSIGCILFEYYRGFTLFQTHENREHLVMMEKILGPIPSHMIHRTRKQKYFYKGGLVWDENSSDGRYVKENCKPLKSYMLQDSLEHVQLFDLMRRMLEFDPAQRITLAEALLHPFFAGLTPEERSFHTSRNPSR

[7] = molecular target: CK1e (Homo sapiens, UniProt P49674)
CK1e, sequence (P49674 whole entry): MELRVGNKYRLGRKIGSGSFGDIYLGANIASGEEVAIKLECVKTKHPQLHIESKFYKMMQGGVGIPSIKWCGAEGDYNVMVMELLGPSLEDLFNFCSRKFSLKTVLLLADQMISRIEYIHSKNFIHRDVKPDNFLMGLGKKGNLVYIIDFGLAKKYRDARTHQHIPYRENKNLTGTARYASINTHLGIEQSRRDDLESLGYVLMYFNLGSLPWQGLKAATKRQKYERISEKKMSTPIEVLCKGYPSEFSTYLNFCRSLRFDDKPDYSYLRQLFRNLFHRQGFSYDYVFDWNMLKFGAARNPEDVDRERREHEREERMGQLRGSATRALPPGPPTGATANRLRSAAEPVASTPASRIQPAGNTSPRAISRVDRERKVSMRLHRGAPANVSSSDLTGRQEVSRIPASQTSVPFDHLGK

[8] = molecular target: Erk2 (Homo sapiens, UniProt P28482)
Erk2, sequence (P28482 whole entry): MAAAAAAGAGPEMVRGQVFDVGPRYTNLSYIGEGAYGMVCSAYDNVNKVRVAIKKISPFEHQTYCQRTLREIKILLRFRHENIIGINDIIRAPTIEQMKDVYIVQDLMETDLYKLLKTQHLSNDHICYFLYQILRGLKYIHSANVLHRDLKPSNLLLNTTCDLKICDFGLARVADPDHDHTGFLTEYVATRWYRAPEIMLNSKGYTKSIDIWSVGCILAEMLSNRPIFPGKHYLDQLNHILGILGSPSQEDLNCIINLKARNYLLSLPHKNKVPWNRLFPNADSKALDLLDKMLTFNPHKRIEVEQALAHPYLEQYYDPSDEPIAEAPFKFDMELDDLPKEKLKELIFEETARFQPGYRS

[9] = molecular target: CK2a1 (Homo sapiens, UniProt P68400)
CK2a1, sequence (P68400 whole entry): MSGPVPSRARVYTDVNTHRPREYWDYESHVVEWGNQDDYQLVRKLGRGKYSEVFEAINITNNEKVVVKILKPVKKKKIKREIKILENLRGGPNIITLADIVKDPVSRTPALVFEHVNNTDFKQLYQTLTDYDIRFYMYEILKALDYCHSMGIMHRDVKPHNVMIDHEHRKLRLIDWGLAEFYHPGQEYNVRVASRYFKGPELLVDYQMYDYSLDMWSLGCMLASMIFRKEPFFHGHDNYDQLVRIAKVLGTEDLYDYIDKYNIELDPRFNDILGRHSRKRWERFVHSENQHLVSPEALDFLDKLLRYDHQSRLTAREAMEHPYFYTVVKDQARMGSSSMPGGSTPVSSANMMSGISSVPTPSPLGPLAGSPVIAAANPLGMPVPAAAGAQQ

[10] = molecular target: T2, BRPF1 (Homo sapiens, UniProt P55201)
T2 sequence (P55201 1-1214): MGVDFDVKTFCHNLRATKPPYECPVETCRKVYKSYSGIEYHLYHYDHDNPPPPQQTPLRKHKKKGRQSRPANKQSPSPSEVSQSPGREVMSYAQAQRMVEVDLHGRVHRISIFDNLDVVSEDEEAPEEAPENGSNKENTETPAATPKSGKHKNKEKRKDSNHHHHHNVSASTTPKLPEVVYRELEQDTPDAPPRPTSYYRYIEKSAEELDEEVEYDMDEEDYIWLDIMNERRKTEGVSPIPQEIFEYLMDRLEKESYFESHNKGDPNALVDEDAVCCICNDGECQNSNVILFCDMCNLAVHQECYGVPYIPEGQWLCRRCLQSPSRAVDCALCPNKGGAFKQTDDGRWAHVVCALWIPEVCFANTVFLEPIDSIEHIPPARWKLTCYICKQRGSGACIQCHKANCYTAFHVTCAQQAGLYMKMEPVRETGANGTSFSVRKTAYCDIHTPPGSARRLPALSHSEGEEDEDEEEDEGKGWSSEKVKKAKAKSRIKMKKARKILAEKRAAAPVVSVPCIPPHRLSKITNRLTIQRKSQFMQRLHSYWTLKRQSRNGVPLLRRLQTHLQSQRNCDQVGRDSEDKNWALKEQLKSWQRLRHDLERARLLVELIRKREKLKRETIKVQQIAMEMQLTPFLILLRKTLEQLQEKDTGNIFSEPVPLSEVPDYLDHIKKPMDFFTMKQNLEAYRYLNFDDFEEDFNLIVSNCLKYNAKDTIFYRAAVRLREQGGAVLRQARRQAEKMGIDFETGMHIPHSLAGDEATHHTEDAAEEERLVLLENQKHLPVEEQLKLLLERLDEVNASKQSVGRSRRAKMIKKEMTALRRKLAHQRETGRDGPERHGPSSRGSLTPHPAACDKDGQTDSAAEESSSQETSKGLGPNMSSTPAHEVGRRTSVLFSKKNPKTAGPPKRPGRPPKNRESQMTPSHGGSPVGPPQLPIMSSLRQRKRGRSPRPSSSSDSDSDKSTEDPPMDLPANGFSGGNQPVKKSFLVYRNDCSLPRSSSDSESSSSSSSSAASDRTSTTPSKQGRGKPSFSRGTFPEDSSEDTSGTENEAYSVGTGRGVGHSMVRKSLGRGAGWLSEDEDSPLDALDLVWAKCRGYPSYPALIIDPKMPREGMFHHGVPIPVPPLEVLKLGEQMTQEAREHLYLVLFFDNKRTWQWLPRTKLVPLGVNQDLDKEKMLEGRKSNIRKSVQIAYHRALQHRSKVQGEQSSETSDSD

Cc1cccc(-c2ccc(-c3cc4cnc(Nc5ccc(F)c(CO)c5)nc4n(CCCCN)c3=O)c(Cl)c2)n1 [compound 33, 8-(4-Aminobutyl)-6-(2-chloro-4-(6-methylpyridin-2-yl)phenyl)-2-((4-fluoro-3-(hydroxymethyl)phenyl)amino)pyrido[2,3-d]pyrimidin-7(8H)-one]
dTm 33 [1]: -4.7 °C
dTm 33 [2]: 2.3 °C
dTm 33 [3]: 7.2 °C
dTm 33 [4]: -0.6 °C
dTm 33 [5]: 3.5 °C
dTm 33 [6]: -0.5 °C
dTm 33 [7]: 6.9 °C
dTm 33 [8]: -0.7 °C
dTm 33 [9]: -0.4 °C
dTm 33 [10]: -2.7 °C

COc1ccc(O)c(Nc2ncc3cc(-c4ccc(-c5cccc(C)n5)cc4Cl)c(=O)n(CCCCN)c3n2)c1 [compound 34, 8-(4-Aminobutyl)-6-(2-chloro-4-(6-methylpyridin-2-yl)phenyl)-2-((2-hydroxy-5-methoxy-phenyl)amino)pyrido[2,3-d]pyrimidin-7(8H)-one]
dTm 34 [1]: -0.8 °C
dTm 34 [2]: 2.0 °C
dTm 34 [3]: 0.8 °C
dTm 34 [4]: -1.0 °C
dTm 34 [5]: 2.5 °C
dTm 34 [6]: -1.0 °C
dTm 34 [7]: 6.5 °C
dTm 34 [8]: -2.7 °C
dTm 34 [9]: 0.5 °C
dTm 34 [10]: -1.6 °C

COc1cc(N2CCOCC2)ccc1Nc1ncc2cc(-c3ccc(-c4cccc(C)n4)cc3Cl)c(=O)n(CCCCN)c2n1 [compound 35, 8-(4-Aminobutyl)-6-(2-chloro-4-(6-methylpyridin-2-yl)phenyl)-2-((2-methoxy-4-morpholino-phenyl)amino)pyrido[2,3-d]pyrimidin-7(8H)-one]
dTm 35 [1]: -2.1 °C
dTm 35 [2]: -0.3 °C
dTm 35 [3]: 1.3 °C
dTm 35 [4]: -2.3 °C
dTm 35 [5]: 2.7 °C
dTm 35 [6]: -1.3 °C
dTm 35 [7]: 6.6 °C
dTm 35 [8]: -3.0 °C
dTm 35 [9]: -0.1 °C
dTm 35 [10]: -2.8 °C

COc1cc(N2CCN(C)CC2)ccc1Nc1ncc2cc(-c3ccc(-c4cccc(C)n4)cc3Cl)c(=O)n(CCCCN)c2n1 [compound 36, 8-(4-Aminobutyl)-6-(2-chloro-4-(6-methylpyridin-2-yl)phenyl)-2-((2-methoxy-4-(4-methylpiperazin-1-yl)phenyl)amino)pyrido[2,3-d]pyrimidin-7(8H)-one]
dTm 36 [1]: -1.5 °C
dTm 36 [2]: 0.2 °C
dTm 36 [3]: 1.0 °C
dTm 36 [4]: -0.8 °C
dTm 36 [5]: 2.4 °C
dTm 36 [6]: -0.7 °C
dTm 36 [7]: 5.1 °C
dTm 36 [8]: -2.7 °C
dTm 36 [9]: 0.2 °C
dTm 36 [10]: -1.2 °C
